Where “and” joins values, the source holds several entries; their conditions need not be identical. Equal values may be shown once. Read-outs that look alike come from different tables or passages of the source.
Legend:
B10 mice [1] = test: Glucose phosphate isomerase-1 (GPI-1) typing of platelets and erythrocytes in mixed allogeneic chimeras; type: in vivo, mouse; conditions: 5 Gy TBI-based regimen, individual animals, 2 months
Experimental: Peripheral blood (0.9 ml) was collected into heparinized microcentrifuge vials. The blood was spun for four seconds at the maximal setting (14,000 rpm) of an Eppendorf microcentrifuge (Beckman #5415). This setting was chosen through an optimization strategy in which force and times were varied as a function of retrieved platelet number. This duration included the acceleration phase, which is incomplete when power is curtailed at the four second mark. After this, the samples were allowed to slow to a halt without braking. Platelet-rich plasma was then carefully aspirated with a disposable polyethylene pipette, avoiding any disturbance of the buffy coat. Triplicate platelet counts were obtained using a Coulter Model ZB1 counter (Hialeah, Fla.), and the average (variation 5%) calculated. […]
Typing of red blood cell (RBC) and platelet phenotypes was performed using the GPI-1 assay (Ildstad, et al., 1991, J Exp Med 174:467). The precipitation pattern for BALB/c mouse and B10 mouse were performed as controls and determined to be totally disparate. […] Percentages were determined by comparison with the positive control. […] In titrations performed to determine the sensitivity of this assay, as low as 2% of BALB/c RBC titrated into normal B10RBC could be reliably detected (Ildstad, et al., 1991, J Exp Med 174:467). […]

baboons = tested on: baboons
Experimental: In addition-to TBI, TLI was also tested in conditioning recipients for bone marrow transplantation. As a single dose, TLI was simply a modified form of TBI in that the method of delivery was the same, except that only certain parts of the recipient's body was exposed to the irradiation. […] In the following study, baboons were treated with a single dose of 7.5 Gy of TLI at day 0 followed by transfer of allogeneic baboon bone marrow cells with at least one MHC disparity. […] Xenogeneic transplantation with human cells was also performed in baboons conditioned with TLI.

NOD mice = test: Partial conditioning for HSC chimerism in NOD mice; type: in vivo, mouse
Text: Often, higher doses of donor cells are required for engraftment as well as higher doses of conditioning to make space. […] One of the goals of the present studies was to identify a strategy to overcome the alloresistance to chimerism in NOD mice by further reducing the irradiation dose for conditioning.
The animals were transplanted with 55×10^6 or 60×10^6 B10.BR/SgnSnJ bone marrow cells, respectively.

baboon = conditions: CyP day -3, -2, -1 + 9.5 Gy TLI day 0
B10 mice [2] = conditions: for NO. OF ANIMALS ENGRAFTED: 300 cGy
Experimental: Recipients were characterized for donor cell engraftment using flow cytometry (FACS II, Becton Dickinson; Mountain View, Calif.) to determine the presence of peripheral blood lymphocytes bearing H-2^b, H-2^k, and H-2^d encoded antigens as described (Jeffries et al., 1985, J Exp Med 117:127).
Briefly, peripheral blood was collected through tail bleeding into heparinized plastic serum vials. 2001 μl of Medium 199 (Gibco Laboratories; Grand Island, N.Y.) were added to each vial. After thorough mixing, the suspension was layered over 1.5 ml of room temperature Lymphocyte Separation Medium (LSM) (Organon Teknika; Durham, N.C.) and centrifuged at 37° C. (400g×20 minutes). The buffy coat layer was aspirated from the Medium 199-LSM interface and washed with medium. Lymphocytes were stained with fluorescein-conjugated monoclonal antibodies for donor- and host-specific class I antibodies H2K^b (AF6-88.5), H2K^d (SF1-1.1), and H2K^k (AF3-12.1) (Pharmingen) conjugated with fluorescein and lineage markers conjugated with PE α β-TCR (H57-597), CD4 (L3T4), CD8 (Ly2), NK1.1 (PK136), and CD45R/B220 (RA3-603) (Pharmingen) and MAC-1 (M1/70) (Boehringer Mannheim, Indianapolis, Ind.) for 45 minutes at 4° C.

[3] = 600 cGy TBI + CyP 50 mg/kg i.p. two days after BMT, 60 × 10^6 B10.BR cells

Q: What does the source list for O=P1(N(CCCl)CCCl)NCCCO1 (centres unmarked) [CyP, cyclophosphamide]?
A: % BALB/c RBC (B10 mice [1]): 100%; % BALB/c platelets (B10 mice [1]): 71% and 78% and 69% and 31%; treated animals with stable donor cell engraftment (baboons; 7.5 Gy TLI + single dose CyP 50 mg/kg at day +2): about 50%; duration of stable engraftment (baboons; 7.5 Gy TLI + two doses of CyP): ≥ 36 weeks; ANIMALS WITH ENGRAFTMENT (NOD mice; 600 cGy TBI + 100 μg mAb i.v. day 5, 3, 1 prior, or + 200 mg/kg CyP i.p. two days after, 55 or 60 × 10^6 B10.BR cells): 4/4; donor chimerism (NOD mice; [3]): 91.5%; engraftment (NOD mice; [3]): 100%; animals engrafted (NOD mice; 600 cGy TBI + single dose CyP 200 mg/kg): 100%; GVHD / morbidity (baboon): no GVHD or significant morbidity; chimerism, human cells (baboon; two months after transplantation): 15%; recipients engrafted (B10 mice [2]; 50 mg/kg CyP or more on day 2 with ALG plus 300 cGy TBI): more than 85%; NO. OF ANIMALS ENGRAFTED (B10 mice [2]; CyP 50 mg/kg day 2, 1 MG ALG): 2/2; NO. OF ANIMALS ENGRAFTED (B10 mice [2]; CyP 50 mg/kg day 2, 2 MG ALG): 1/1; NO. OF ANIMALS ENGRAFTED (B10 mice [2]; CyP 50 mg/kg day 2, TOTAL): 3/3; NO. OF ANIMALS ENGRAFTED (B10 mice [2]; CyP 100 mg/kg day 2, 1 MG ALG): 2/2; NO. OF ANIMALS ENGRAFTED (B10 mice [2]; CyP 100 mg/kg day 2, 2 MG ALG): 2/2; NO. OF ANIMALS ENGRAFTED (B10 mice [2]; CyP 100 mg/kg day 2, TOTAL): 4/4; NO. OF ANIMALS ENGRAFTED (B10 mice [2]; CyP 150 mg/kg day 2, 1 MG ALG): 3/4; NO. OF ANIMALS ENGRAFTED (B10 mice [2]; CyP 150 mg/kg day 2, 2 MG ALG): 2/2; NO. OF ANIMALS ENGRAFTED (B10 mice [2]; CyP 150 mg/kg day 2, TOTAL): 5/6; NO. OF ANIMALS ENGRAFTED (B10 mice [2]; CyP 200 mg/kg day 2, 1 MG ALG): 5/6; NO. OF ANIMALS ENGRAFTED (B10 mice [2]; CyP 200 mg/kg day 2, 2 MG ALG): 7/8; NO. OF ANIMALS ENGRAFTED (B10 mice [2]; CyP 200 mg/kg day 2, TOTAL): 12/14

Reference: patent US20030165475A1, “Non-lethal methods for conditioning a recipient for bone marrow transplantation” (priority 1993, published 2003)
